Molecules are shown by their SMILES.

Assay [1] has as its system delayed-type hypersensitivity model in mice. Conditions: disclosed in WO 2004/032824; cited from earlier work.
A further assay relates to EAE model in rats. Particulars: disclosed in WO 2004/032824; cited from earlier work.
Assay [2] concerns alopecia greata in C3H/HeJ mice. Particulars: for effective in treating the alopecia greata in C3H/HeJ mice: conclusion in words from Example 1; for Average score: hair amount and hair growth in biopsies from mustache, face, head, neck, back, stomach graded 1 (no hair) to 5 (full growth), averaged per group, day 93, negative control (PBS) 2.48; for Average score / Overall score: 25 mg/ml in PBS, topical; for Overall score: overall appearance graded on a scale of 1 (50% of mouse hairless) to 5 (full hair), group mean, 40 μl per cm^2 lesion, day 93 from the beginning of the treatment, negative control (PBS) 2.7.
Description: The young mice will develop the disease subsequent to grafting.
Lesional grafts from old C3H/HeJ mice were grafted onto young C3H/HeJ mice. On day 30-40 post-graft the mice were randomized into groups with approximately the same degree of alopecia greata pathology.
Group 1: negative control, phosphate buffered saline (PBS).
Treatment was initiated on the day of randomization into groups. Mice were treated by providing 40 μl of solution per cm^2 lesion. The solution was evenly spread and was allowed to soak into the skin. Mice were observed twice weekly and the size of patches was measured and documented.
Treatment solutions were prepared freshly each day.
At the end of the study, skin biopsies were evaluated in a blinded manner. The hair amount and hair growth from biopsies from mice mustache, face, head, neck, back, and stomach were graded from 1 to 5. A rating of 1 represented no hair, and a rating of 5 represented full growth. These scores were calculated for each mouse and averaged, and the average for each group is shown below as “average score.”
In addition, the mice were graded based on their overall appearance on a scale of 1 to 5 for “overall score.”
Score 1=50% of mouse hairless.
Score 2=20-40% of mouse hairless.
Score 3=hairless patch covering up to 20% of mouse.
Score 4=thin hair, or local small hairless patch.
There were 7 mice in each of the test compound groups and 5 mice in the negative control group.
The scoring occurred on day 93 from the beginning of the treatment.

As to `CCCCCCCC/C=C\CCCCCCCCOC(=O)CN1CCNCC1.O=C(O)C(O)C(O)C(=O)O` [compound 2], in assay [1], the “results in a delayed-type hypersensitivity model in mice” value is on record as “positive results”. Also, the “results in an EAE model in rats” value with EAE model in rats is recorded as “positive results”. Moreover, in assay [2], the “effective in treating the alopecia greata in C3H/HeJ mice” value is “effective”, the Average score came out at 2.91 and the Overall score turned out to be 3.5.

As to `CCCCCCCC/C=C\CCCCCCCCOC(=O)C(N)c1ccccc1.Cl` (stereo not drawn) [compound 1, amino-phenyl-acetic acid octadec-(Z)-9-enyl ester HCl], the “results in a delayed-type hypersensitivity model in mice” value in assay [1] is listed as “positive results”. Besides, in assay [2], the “effective in treating the alopecia greata in C3H/HeJ mice” value is listed as “effective”, the Average score worked out at 3.11 and the Overall score is 3.5.

The values above are taken from patent publication US20080221115A1, “Use of long-chain alcohol derivatives for the treatment of alopecia areata” (priority 2007, published 2008).
